Laboratory results taken from the PolyMetriX glass transition set.

For *C(=O)Nc1ccc(NC(=O)c2ccc3[nH]c(-c4cc(-c5nc6cc(*)ccc6[nH]5)cc(N5C(=O)c6ccccc6C5=O)c4)nc3c2)cc1 (repeat unit), the glass transition temperature was 295.00 °C.

*C(=O)Nc1ccc(NC(=O)c2ccc3c(c2)C(=O)N(c2ccc(Oc4cccc5c(N6C(=O)c7ccc(*)cc7C6=O)cccc45)cc2)C3=O)cc1 (repeat unit) gave a glass transition temperature of 307.00 °C.

With *C(=O)Nc1ccc(NC(=O)c2ccc3c(c2)C(=O)N(c2cccc(P(=O)(c4ccccc4)c4cccc(N5C(=O)c6ccc(*)cc6C5=O)c4)c2)C3=O)cc1 (repeat unit) the glass transition temperature was 204.00 °C.

In the case of *C(=O)Nc1ccc(Oc2ccc(-c3ccc(Oc4ccc(NC(=O)c5ccc6c(c5)C(=O)N(c5ccc(Oc7ccc(S(=O)(=O)c8ccc(Oc9ccc(N%10C(=O)c%11ccc(*)cc%11C%10=O)cc9)cc8)cc7)cc5)C6=O)cc4)cc3)cc2)cc1 (repeat unit), the glass transition temperature is reported as 267.00 °C.

For *C(=O)Nc1ccc(Oc2ccc(-c3ccc(Oc4ccc(NC(=O)c5ccc6c(c5)C(=O)N(c5ccc(Oc7cccc8c(Oc9ccc(N%10C(=O)c%11ccc(*)cc%11C%10=O)cc9)cccc78)cc5)C6=O)cc4)cc3)cc2)cc1 (repeat unit), the glass transition temperature was 310.00 °C.

*C(=O)Nc1ccc(Oc2ccc(-c3ccc(Oc4ccc(NC(=O)c5ccc6c(c5)C(=O)N(c5ccc(Oc7ccccc7-c7ccccc7Oc7ccc(N8C(=O)c9ccc(*)cc9C8=O)cc7)cc5)C6=O)cc4)cc3)cc2)cc1 (repeat unit) showed a glass transition temperature of 254.00 °C.

*C(=O)Nc1ccc(Oc2ccc(C(c3ccc(Oc4ccc(NC(=O)c5ccc6c(c5)C(=O)N(c5ccc(Oc7ccc(C8(c9ccc(Oc%10ccc(N%11C(=O)c%12ccc(*)cc%12C%11=O)cc%10)cc9)CC9CC8C8CCCC98)cc7)cc5)C6=O)cc4)cc3)(C(F)(F)F)C(F)(F)F)cc2)cc1 (repeat unit) gave a glass transition temperature of 254.00 °C.

In the case of *C(=O)Nc1ccc(Oc2ccc(C3(c4ccc(Oc5ccc(NC(=O)c6ccc7c(c6)C(=O)N(c6ccc(Oc8ccc(C9(c%10ccc(Oc%11ccc(N%12C(=O)c%13ccc(*)cc%13C%12=O)cc%11)cc%10)NC(=O)c%10ccccc%109)cc8)cc6)C7=O)cc5)cc4)NC(=O)c4ccccc43)cc2)cc1 (repeat unit), the glass transition temperature is reported as 330.00 °C.

*C(=O)Nc1ccc(Oc2ccc(C3(c4ccc(Oc5ccc(NC(=O)c6ccc7c(c6)C(=O)N(c6cccc(N8C(=O)c9ccc(*)cc9C8=O)c6)C7=O)cc5)cc4)NC(=O)c4ccccc43)cc2)cc1 (repeat unit) showed a glass transition temperature of 320.00 °C.

*C(=O)Nc1ccc(Oc2ccc(N3C(=O)c4ccc(*)cc4C3=O)cc2)cc1 (repeat unit) gave a glass transition temperature of 295.00 °C.

Molecule *C(=O)Nc1ccc2c(c1)Cc1cc(NC(=O)c3ccc4c(c3)C(=O)N(c3ccc(NC(=O)Nc5ccc(N6C(=O)c7ccc(*)cc7C6=O)cc5)cc3)C4=O)ccc1-2 (repeat unit) has a glass transition temperature of 224.00 °C.

Molecule *CCCCCOc1ccc(NC(=O)c2cccc(C(=O)Nc3ccc(O*)cc3)c2)cc1 (repeat unit) has a glass transition temperature of 155.00 °C.

With *CCOCCOc1ccc(NC(=O)c2cccc(C(=O)Nc3ccc(O*)cc3)c2)cc1 (repeat unit) the glass transition temperature was 155.00 °C.

Molecule *Cc1ccc2oc(=O)c(C(=O)Nc3ccc(Oc4ccc(C(c5ccc(Oc6ccc(NC(=O)c7cc8cc(*)ccc8oc7=O)cc6)cc5)(C(F)(F)F)C(F)(F)F)cc4)cc3)cc2c1 (repeat unit) has a glass transition temperature of 283.00 °C.

Work on *Cc1ccc2oc(=O)c(C(=O)Nc3ccc(Oc4ccc(NC(=O)c5cc6cc(*)ccc6oc5=O)cc4)cc3)cc2c1 (repeat unit) yielded a glass transition temperature of 312.00 °C.

In the case of *Nc1cc(NC(=O)Nc2ccc(NC(*)=O)cc2)cc(C(=O)Nc2ccc3c(c2)C(=O)c2ccccc2C3=O)c1 (repeat unit), the glass transition temperature is reported as 184.00 °C.

*Nc1cc(NC(=O)Nc2ccc(NC(*)=O)cc2)cc(C(=O)Nc2cccc3c2C(=O)c2ccccc2C3=O)c1 (repeat unit) gave a glass transition temperature of 190.00 °C.

For *Nc1ccc(NC(=O)c2ccc(NC(=O)c3ccc(P(=O)(c4ccccc4)c4ccc(C(*)=O)cc4)cc3)cc2)cc1 (repeat unit), the glass transition temperature was 243.00 °C.

With *Nc1ccc(NC(=O)c2cccc(C(*)=O)c2)cc1 (repeat unit) the glass transition temperature was 295.00 °C.

With *Nc1ccc(NC(=O)c2cccc(C(=O)c3ccc(C(*)=O)cc3)c2)cc1 (repeat unit) the glass transition temperature was 257.50 °C.

Molecule *OP(=O)(Oc1ccc(NC(=O)Oc2ccc(-c3ccc(OC(=O)Nc4ccc(*)cc4)cc3)cc2)cc1)c1ccccc1 (repeat unit) has a glass transition temperature of 34.00 °C.

*Oc1ccc(-c2ccc(Oc3ccc(C(=O)c4ccc(C(=O)c5ccc(*)cc5)cc4)cc3)cc2)cc1 (repeat unit) gave a glass transition temperature of 173.00 °C.

*Oc1ccc(NC(=C(C#N)C#N)c2ccc(-c3ccc(C(Nc4ccc(*)cc4)=C(C#N)C#N)cc3)cc2)cc1 (repeat unit) showed a glass transition temperature of 220.00 °C.

For *Oc1ccc(NC(=O)c2cc(C(=O)Nc3ccc(Oc4ccc(C(c5ccc(*)cc5)(C(F)(F)F)C(F)(F)F)cc4)cc3)cc([N+](=O)[O-])c2)cc1 (repeat unit), the glass transition temperature was 232.00 °C.

*Oc1ccc(NC(=O)c2ccc(*)cc2)cc1 (repeat unit) showed a glass transition temperature of 225.00 °C.

In the case of *Oc1ccc(NC(=O)c2ccc(C(=O)Nc3ccc(Oc4ccc(C(c5ccc(*)cc5)(C(F)(F)F)C(F)(F)F)cc4)cc3)cc2)cc1 (repeat unit), the glass transition temperature is reported as 243.00 °C.

Molecule *Oc1ccc(NC(=O)c2ccc(C(=O)Nc3ccc(Oc4ccc(C5(c6ccc(*)cc6)C6CC7CC(C6)CC5C7)cc4)cc3)c3ccccc23)cc1 (repeat unit) has a glass transition temperature of 269.00 °C.

For *Oc1ccc(NC(=O)c2ccc(C(=O)Nc3ccc(Oc4ccc(C5(c6ccc(*)cc6)C6CC7CC(C6)CC5C7)cc4)cc3)cc2)cc1 (repeat unit), the glass transition temperature was 264.00 °C.

For *Oc1ccc(NC(=O)c2ccc([Si](c3ccccc3)(c3ccccc3)c3ccc(C(*)=O)cc3)cc2)cc1 (repeat unit), the glass transition temperature was 235.00 °C.

Work on *Oc1ccc(NC(=O)c2cccc(C(=O)Nc3ccc(OC4COC5C(*)COC45)cc3)c2)cc1 (repeat unit) yielded a glass transition temperature of 218.00 °C.

Molecule *Oc1ccc(NC(=O)c2cccc(C(=O)Nc3ccc(Oc4ccc(C5(c6ccc(*)cc6)C6CC7CC(C6)CC5C7)cc4)cc3)c2)cc1 (repeat unit) has a glass transition temperature of 273.00 °C.

Molecule *Oc1ccc2ccc(Oc3ccc(C(=O)Nc4ccc(Oc5ccc(C(c6ccc(Oc7ccc(NC(=O)c8ccc(*)cc8)cc7)cc6)(C(F)(F)F)C(F)(F)F)cc5)cc4)cc3)cc2c1 (repeat unit) has a glass transition temperature of 163.00 °C.

*Oc1cccc(NC(=O)c2cccc(C(=O)Nc3ccc(Oc4ccc(C(=O)c5ccc(*)cc5)cc4)cc3)c2)c1 (repeat unit) gave a glass transition temperature of 114.00 °C.

Molecule *c1ccc(C(=O)Nc2ccc(Oc3ccc(NC(=O)c4ccc(-n5c(=O)c6cc7c(=O)n(*)c(=O)c7cc6c5=O)cc4)cc3)cc2)cc1 (repeat unit) has a glass transition temperature of 360.00 °C.

With *c1ccc(C(=O)Nc2ccc(Oc3ccc(NC(=O)c4ccc(Oc5ccc(-c6nn(*)c(=O)c7ccccc67)cc5)cc4)cc3)cc2)cc1 (repeat unit) the glass transition temperature was 280.00 °C.

For *c1ccc(NC(=O)Nc2ccc(NC(=O)Nc3ccc(-c4nc(-c5ccc(-c6nc(-c7ccc([N+](=O)[O-])cc7)c(-c7ccc([N+](=O)[O-])cc7)[nH]6)cc5)[nH]c4*)cc3)cc2)cc1 (repeat unit), the glass transition temperature was 272.00 °C.

Work on *c1ccc(NC(=O)Nc2ccc(NC(=O)Nc3ccc(-c4nc(-c5ccc([N+](=O)[O-])cc5)[nH]c4*)cc3)cc2)cc1 (repeat unit) yielded a glass transition temperature of 292.00 °C.

Molecule *c1ccc(Oc2ccc(C(=O)c3ccc(C(=O)c4ccc(Oc5ccc(-c6cc(*)[nH]n6)cc5)cc4)cc3)cc2)cc1 (repeat unit) has a glass transition temperature of 235.00 °C.

Molecule *c1ccc(Oc2ccc(C(=O)c3ccc(C(=O)c4ccc(Oc5ccc(-c6nc(-c7cccc(-c8nc(*)c(-c9ccccc9)[nH]8)c7)[nH]c6-c6ccccc6)cc5)cc4)cc3)cc2)cc1 (repeat unit) has a glass transition temperature of 262.00 °C.

*c1ccc(Oc2ccc(C(=O)c3ccc(C(=O)c4ccc(Oc5ccc(-c6nc(-c7ccccc7)[nH]c6*)cc5)cc4)cc3)cc2)cc1 (repeat unit) showed a glass transition temperature of 248.00 °C.

*c1ccc(Oc2ccc(NC(=O)c3ccc4c(c3)C(=O)N(c3ccc(Sc5ccc(N6C(=O)c7ccc(C(=O)Nc8ccc(Oc9ccc(C%10(*)NC(=O)c%11ccccc%11%10)cc9)cc8)cc7C6=O)cc5)cc3)C4=O)cc2)cc1 (repeat unit) showed a glass transition temperature of 298.00 °C.

*c1ccc(Oc2ccc(NC(=O)c3cccc(C(=O)Nc4ccc(Oc5ccc(-n6c(=O)c7cc8c(=O)n(*)c(=O)c8cc7c6=O)cc5)cc4)c3)cc2)cc1 (repeat unit) gave a glass transition temperature of 282.00 °C.

Work on *c1ccc(Oc2ccc(NC(=O)c3cccc(Oc4ccc5c(c4)C(=O)N(*)C5=O)c3)cc2)cc1 (repeat unit) yielded a glass transition temperature of 231.00 °C.

For *c1ccc(Oc2ccc3ccccc3c2-c2c(Oc3ccc(N4C(=O)c5ccc(NC(=O)Nc6ccc(Oc7ccc(NC(=O)Nc8ccc9c(c8)C(=O)N(*)C9=O)cc7)cc6)cc5C4=O)cc3)ccc3ccccc23)cc1 (repeat unit), the glass transition temperature was 274.00 °C.

For *c1ccc2c(c1)C(=O)N(c1cccc(C(=O)Nc3ccc(NC(=O)c4ccc(NC(=O)c5cccc(N6C(=O)c7ccc(C(*)(C(F)(F)F)C(F)(F)F)cc7C6=O)c5)cc4)cc3)c1)C2=O (repeat unit), the glass transition temperature was 328.00 °C.

*c1ccc2c(c1)C(=O)N(c1cccc(C(=O)Nc3ccc(NC(=O)c4cccc(N5C(=O)c6ccc(C(*)(C(F)(F)F)C(F)(F)F)cc6C5=O)c4)cc3)c1)C2=O (repeat unit) gave a glass transition temperature of 311.00 °C.

*c1ccc2c(c1)C(=O)N(c1cccc(C(=O)Nc3ccc(Oc4ccc(-c5ccc(Oc6ccc(NC(=O)c7cccc(N8C(=O)c9ccc(C(*)(C(F)(F)F)C(F)(F)F)cc9C8=O)c7)cc6)cc5)cc4)cc3)c1)C2=O (repeat unit) showed a glass transition temperature of 280.00 °C.

*c1cccc(C(=O)Nc2ccc(NC(=O)c3cccc(N4C(=O)c5ccc(-c6cccc7c6C(=O)N(*)C7=O)cc5C4=O)c3)cc2)c1 (repeat unit) gave a glass transition temperature of 328.00 °C.

Work on *c1cccc(C(=O)Nc2ccc(Oc3ccc(-c4ccc(Oc5ccc(NC(=O)c6cccc(N7C(=O)c8ccc(-c9cccc%10c9C(=O)N(*)C%10=O)cc8C7=O)c6)cc5)cc4)cc3)cc2)c1 (repeat unit) yielded a glass transition temperature of 275.00 °C.
